Source: patent US8987233B2, “Bruton's tyrosine kinase activity probe and method of using” (Pharmacyclics, Inc., priority 2006, dated 2015)

Assays:
purified, active Btk = purified, active Btk (Homo sapiens, UniProt Q06187); experiment: Btk labeling in vitro (purified enzyme, SDS-PAGE, fluorescent scan)
Lck = Lck (Homo sapiens, UniProt P06239); experiment: TR-FRET kinase assay, Lck; type: biochemical; conditions: ATP at Km
Experimental: (§1) Kinase activity for Btk, Abl, c-met, ITK, LCK, and EGFR was determined using a time-resolved fluorescence resonance energy transfer (TR-FRET) methodology. Measurements were performed in a reaction volume of 50 μl using 96-well assay plates. […] For each compound, enzyme activity was measured at various concentrations of compound. Negative control reactions were performed in the absence of inhibitor in replicates of six, and two no-enzyme controls were used to determine baseline fluorescence levels. Inhibition constants {Ki(app)} were obtained using the program BatchKi (23).

Btk [1] = target: T1, Btk (Homo sapiens, UniProt Q06187); experiment: TR-FRET kinase assay, Btk; type: biochemical; design: His6 (N); purchased Upstate Biochem
T1 sequence (Q06187 whole entry): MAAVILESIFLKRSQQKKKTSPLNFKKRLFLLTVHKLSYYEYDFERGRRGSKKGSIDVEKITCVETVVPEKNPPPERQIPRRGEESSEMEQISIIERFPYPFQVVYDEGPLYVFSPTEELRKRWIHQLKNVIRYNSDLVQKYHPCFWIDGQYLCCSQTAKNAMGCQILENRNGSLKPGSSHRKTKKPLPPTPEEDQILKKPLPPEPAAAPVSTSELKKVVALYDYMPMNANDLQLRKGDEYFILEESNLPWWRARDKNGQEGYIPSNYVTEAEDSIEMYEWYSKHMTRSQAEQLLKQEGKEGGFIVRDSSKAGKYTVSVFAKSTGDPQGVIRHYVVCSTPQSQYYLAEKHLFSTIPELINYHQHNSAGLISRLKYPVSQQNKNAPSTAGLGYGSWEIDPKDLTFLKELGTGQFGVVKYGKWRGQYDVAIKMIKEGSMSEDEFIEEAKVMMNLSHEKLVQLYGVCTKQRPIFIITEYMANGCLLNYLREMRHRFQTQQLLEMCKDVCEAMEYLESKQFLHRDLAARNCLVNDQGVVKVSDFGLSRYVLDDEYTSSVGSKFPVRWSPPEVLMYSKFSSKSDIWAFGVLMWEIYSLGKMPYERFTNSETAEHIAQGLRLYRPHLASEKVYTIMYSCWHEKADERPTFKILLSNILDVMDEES
Experimental: (§2) Kinase activity for Btk, Abl, c-met, ITK, LCK, and EGFR was determined using a time-resolved fluorescence resonance energy transfer (TR-FRET) methodology. Measurements were performed in a reaction volume of 50 μl using 96-well assay plates. […] The reaction was quenched by the addition of 1.2 equivalents of EDTA (relative to divalent cation) in 25 μL of 1× Lance buffer (Perkin-Elmer). Streptavidin-APC (Perkin-Elmer) and Eu-labeled p-Tyr100 antibody (Perkin-Elmer) in 1× Lance buffer were added in a 25 μL volume to give final concentrations of 100 nM and 2.5 nM, respectively, and the mixture was allowed to incubate for one hour. The TR-FRET signal was measured on a multimode plate reader with an excitation wavelength of 330 nm and detection wavelengths of 615 and 665 nm. Activity was determined by the ratio of the fluorescence at 665 nm to that at 615 nm. For each compound, enzyme activity was measured at various concentrations of compound. Negative control reactions were performed in the absence of inhibitor in replicates of six, and two no-enzyme controls were used to determine baseline fluorescence levels. Inhibition constants {Ki(app)} were obtained using the program BatchKi (23). […]; for all kinases, [ATP]=KmATP, [Btk]total=0.5 nM and [Lck]total=6 nM.

Btk [2] = target: T1, Btk; experiment: Probe labeling of endogenous Btk in cultured B cells (DOHH2)
Experimental: In some embodiments, to determine if a test Btk probe detects endogenous levels of Btk activity, label cultured B cells such as Ramos or DOHH2 B cells were used.
Cells were then harvested and lysed by incubation in 50 μl of cell lysis buffer (CelLytic M, Sigma) supplemented with 1× protease inhibitor and 1× phosphatase inhibitor cocktails (Calbiochem) for 10 min on ice. The protein concentrations in cell lysates were determined by Bradford protein assay (Pierce). Lysates equivalent to 20 μg of total protein were fractionated on 4 to 20% SDS-gradient gels (Invitrogen), and scanned using a Typhoon densitometer as described above. Labeling of Ramos cells was carried out in identical fashion except RPMI medium was used.

Abl = Abl (Homo sapiens, UniProt P00519); experiment: TR-FRET kinase assay, Abl; type: biochemical; conditions: ATP at Km
Chain of Abl (P00519 whole entry, species assumed): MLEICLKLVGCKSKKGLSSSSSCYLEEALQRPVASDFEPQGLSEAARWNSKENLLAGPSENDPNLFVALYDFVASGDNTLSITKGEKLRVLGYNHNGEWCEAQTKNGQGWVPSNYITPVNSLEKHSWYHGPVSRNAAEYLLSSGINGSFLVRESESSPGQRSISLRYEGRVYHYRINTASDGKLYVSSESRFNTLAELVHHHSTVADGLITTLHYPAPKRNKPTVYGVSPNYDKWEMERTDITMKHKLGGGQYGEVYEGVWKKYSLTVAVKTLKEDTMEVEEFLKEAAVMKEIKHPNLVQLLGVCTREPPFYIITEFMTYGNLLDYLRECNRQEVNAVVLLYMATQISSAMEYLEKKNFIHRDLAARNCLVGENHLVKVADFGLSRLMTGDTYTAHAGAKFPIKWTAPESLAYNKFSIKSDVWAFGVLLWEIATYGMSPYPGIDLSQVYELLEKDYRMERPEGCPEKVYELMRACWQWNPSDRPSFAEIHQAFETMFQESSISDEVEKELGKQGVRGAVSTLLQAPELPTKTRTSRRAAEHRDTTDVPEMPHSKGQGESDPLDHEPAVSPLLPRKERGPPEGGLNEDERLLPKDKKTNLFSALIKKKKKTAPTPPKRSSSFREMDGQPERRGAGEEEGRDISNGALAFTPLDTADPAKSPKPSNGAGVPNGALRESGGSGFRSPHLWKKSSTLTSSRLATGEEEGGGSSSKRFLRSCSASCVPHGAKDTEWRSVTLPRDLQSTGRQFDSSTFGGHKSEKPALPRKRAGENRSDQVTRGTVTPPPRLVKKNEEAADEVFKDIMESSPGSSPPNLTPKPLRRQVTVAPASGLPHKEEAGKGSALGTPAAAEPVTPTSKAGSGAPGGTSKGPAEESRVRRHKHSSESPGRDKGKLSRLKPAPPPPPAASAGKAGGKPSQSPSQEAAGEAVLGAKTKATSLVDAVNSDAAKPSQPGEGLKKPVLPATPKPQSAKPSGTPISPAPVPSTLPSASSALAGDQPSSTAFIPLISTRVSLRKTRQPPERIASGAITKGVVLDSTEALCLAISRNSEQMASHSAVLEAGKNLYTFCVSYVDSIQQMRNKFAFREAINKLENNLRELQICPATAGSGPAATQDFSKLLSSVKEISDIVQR
Experimental: as §1

Btk [3] = target: T1, Btk; experiment: Inhibition of PLCγ2 phosphorylation at Tyr 1217 in 293H cells (ELISA); type: cell-based; conditions: Tyr 1217, ELISA, read-out: IC50 for probe inhibition of PLCγ2 phosphorylation
EGFR = EGFR (Homo sapiens, UniProt P00533); experiment: TR-FRET kinase assay, EGFR; type: biochemical; conditions: ATP at Km
Chain of EGFR (P00533 25-1210, species assumed): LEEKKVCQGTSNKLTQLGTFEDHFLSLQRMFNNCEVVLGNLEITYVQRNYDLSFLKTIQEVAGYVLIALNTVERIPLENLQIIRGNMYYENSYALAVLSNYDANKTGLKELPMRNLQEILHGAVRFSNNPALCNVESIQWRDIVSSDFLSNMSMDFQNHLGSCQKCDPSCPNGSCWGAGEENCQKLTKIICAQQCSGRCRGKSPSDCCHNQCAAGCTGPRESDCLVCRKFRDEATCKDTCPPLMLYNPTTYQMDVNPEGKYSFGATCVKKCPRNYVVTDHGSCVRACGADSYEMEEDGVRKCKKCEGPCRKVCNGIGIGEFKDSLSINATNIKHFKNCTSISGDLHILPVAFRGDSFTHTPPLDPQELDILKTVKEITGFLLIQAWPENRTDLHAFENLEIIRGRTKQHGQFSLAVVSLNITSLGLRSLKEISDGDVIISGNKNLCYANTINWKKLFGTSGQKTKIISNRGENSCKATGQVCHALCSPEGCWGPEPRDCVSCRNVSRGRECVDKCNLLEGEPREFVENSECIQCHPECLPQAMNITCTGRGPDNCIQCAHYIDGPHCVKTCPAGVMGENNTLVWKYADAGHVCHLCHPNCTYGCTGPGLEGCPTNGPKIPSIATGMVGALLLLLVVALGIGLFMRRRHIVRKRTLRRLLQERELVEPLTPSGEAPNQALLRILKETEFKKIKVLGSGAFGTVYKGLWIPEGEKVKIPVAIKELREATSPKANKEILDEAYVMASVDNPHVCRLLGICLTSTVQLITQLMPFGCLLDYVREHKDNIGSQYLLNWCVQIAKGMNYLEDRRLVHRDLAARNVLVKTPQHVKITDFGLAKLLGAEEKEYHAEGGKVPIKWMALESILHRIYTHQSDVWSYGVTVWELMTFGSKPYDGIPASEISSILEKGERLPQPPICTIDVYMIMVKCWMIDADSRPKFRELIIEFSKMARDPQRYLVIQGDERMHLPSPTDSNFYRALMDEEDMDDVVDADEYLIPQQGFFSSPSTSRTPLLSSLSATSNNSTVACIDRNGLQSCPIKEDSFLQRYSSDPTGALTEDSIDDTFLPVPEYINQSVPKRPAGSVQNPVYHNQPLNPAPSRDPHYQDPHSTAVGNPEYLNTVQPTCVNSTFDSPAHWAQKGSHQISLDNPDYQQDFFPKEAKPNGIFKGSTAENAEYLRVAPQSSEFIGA
Experimental: as §2

[4] = target: Btk Tyr 551 to Ala mutant (Homo sapiens, UniProt Q06187, Y551A); experiment: Probe labeling in 293H cells transiently co-expressing PLCγ2 and Btk Y551A; conditions: transient co-expression with PLCγ2
Chain of Btk Tyr 551 to Ala mutant (Q06187 whole entry Y551A): as the sequence (Q06187 whole entry) above, with Y551A counted along it
Experimental: (§3) The selected co-expressor cell line was routinely maintained in D-MEM containing 10% FBS, 1× non-essential amino acids, 1× antibiotics, and supplemented with 200 μg/ml G418 and 25 μg/ml blastocidin. […] Cells were then harvested and lysed by incubation in 50 μl of cell lysis buffer (CelLytic M, Sigma) supplemented with 1× protease inhibitor and 1× phosphatase inhibitor cocktails (Calbiochem) for 10 min on ice. The protein concentrations in cell lysates were determined by Bradford protein assay (Pierce). Lysates equivalent to 20 μg of total protein were fractionated on 4 to 20% SDS-gradient gels (Invitrogen), and scanned using a Typhoon densitometer as described above. Labeling of Ramos cells was carried out in identical fashion except RPMI medium was used.

c-met = c-met (Homo sapiens, UniProt P08581); experiment: TR-FRET kinase assay, c-met; type: biochemical; conditions: ATP at Km
Chain of c-met (P08581 25-1390): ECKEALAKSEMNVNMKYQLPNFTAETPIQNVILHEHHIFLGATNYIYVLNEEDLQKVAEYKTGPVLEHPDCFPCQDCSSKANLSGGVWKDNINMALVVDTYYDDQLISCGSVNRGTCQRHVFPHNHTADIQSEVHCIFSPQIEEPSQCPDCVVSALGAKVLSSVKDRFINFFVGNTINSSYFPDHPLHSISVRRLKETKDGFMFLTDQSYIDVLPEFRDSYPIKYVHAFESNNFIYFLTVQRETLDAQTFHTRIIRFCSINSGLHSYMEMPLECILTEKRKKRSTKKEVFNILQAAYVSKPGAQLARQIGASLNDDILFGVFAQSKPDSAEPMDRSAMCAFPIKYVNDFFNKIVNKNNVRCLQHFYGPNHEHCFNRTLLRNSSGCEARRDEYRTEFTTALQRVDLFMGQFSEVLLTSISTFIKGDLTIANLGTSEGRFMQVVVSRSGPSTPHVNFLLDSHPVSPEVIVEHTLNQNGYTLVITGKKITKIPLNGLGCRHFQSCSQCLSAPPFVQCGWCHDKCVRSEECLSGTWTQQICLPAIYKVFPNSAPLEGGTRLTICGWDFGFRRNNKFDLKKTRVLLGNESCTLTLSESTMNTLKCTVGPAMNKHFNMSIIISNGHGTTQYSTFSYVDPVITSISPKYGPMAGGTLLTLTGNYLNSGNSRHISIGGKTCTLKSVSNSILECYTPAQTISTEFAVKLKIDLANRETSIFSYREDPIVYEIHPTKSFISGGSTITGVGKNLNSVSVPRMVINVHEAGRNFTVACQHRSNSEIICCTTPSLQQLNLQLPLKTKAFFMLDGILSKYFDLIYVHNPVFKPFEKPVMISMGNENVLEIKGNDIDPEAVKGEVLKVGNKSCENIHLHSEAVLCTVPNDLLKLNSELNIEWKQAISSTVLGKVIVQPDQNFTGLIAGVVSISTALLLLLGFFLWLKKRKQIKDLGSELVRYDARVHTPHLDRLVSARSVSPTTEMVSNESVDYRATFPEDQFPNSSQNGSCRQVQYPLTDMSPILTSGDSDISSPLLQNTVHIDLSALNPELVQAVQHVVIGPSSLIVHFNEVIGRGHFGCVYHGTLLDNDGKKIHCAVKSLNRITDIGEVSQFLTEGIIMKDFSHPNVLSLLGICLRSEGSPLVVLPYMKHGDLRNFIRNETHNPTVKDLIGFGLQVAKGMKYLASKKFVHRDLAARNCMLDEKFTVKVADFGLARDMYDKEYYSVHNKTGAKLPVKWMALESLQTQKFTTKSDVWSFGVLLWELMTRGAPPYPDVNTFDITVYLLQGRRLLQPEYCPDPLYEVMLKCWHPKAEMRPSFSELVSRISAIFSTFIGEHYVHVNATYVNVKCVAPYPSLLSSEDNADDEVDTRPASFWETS
Experimental: as §2

[5] = test system: intracellular calcium mobilization in Ramos cells following B cell receptor activation; experiment: Calcium flux assay in Ramos B-cells stimulated with anti-human IgM; type: cell-based; conditions: anti-IgM stimulation, read-out: IC50 Ca2+ flux (calcium mobilization)
Experimental: Calcium flux assay was performed according to the protocol described by the manufacturer (Molecular Devices). Briefly, actively growing Ramos B-cells in RPMI medium supplemented with 10% FBS were washed and re-plated in low serum medium to approximately 5×10^5 cells per 100 μl per well in 96-well plate. Compounds to be assayed were dissolved in DMSO, diluted to appropriate concentrations in low serum medium (from 0 to 10 μM final concentrations at a stepwise dilution factor of 0.3), added to each well (the final DMSO concentration was 0.01% in each well) and incubated at 37° in a 5% CO2 incubator for 1 hour. 100 μl calcium assay dye (Calcium 3 assay kit, Molecular Devices) was then added to each well and the incubation was continued for one hour. Compound-treated cells were stimulated with a goat anti-human IgM antibody (80 μg/ml) and the calcium mobilization signal was read in a Flexstation II 384 (Molecular Devices) at excitation and emission wavelengths of 485 nm and 538 nm, respectively, for 200 seconds. The relative fluorescence units (RFU) and the fifty percent inhibition values (IC50%) were recorded and analyzed using the SoftMax program (Molecular Devices).

[6] = target: Btk Cys 481 to Ala mutation (Homo sapiens, UniProt Q06187, C481A); experiment: Probe labeling in 293H cells transiently co-expressing PLCγ2 and Btk C481A; conditions: transient co-expression with PLCγ2
Chain of Btk Cys 481 to Ala mutation (Q06187 whole entry C481A): as the sequence (Q06187 whole entry) above, with C481A counted along it
Experimental: as §3

Btk [7] = target: T1, Btk; experiment: Probe labeling of Btk in 293H cells stably co-expressing Btk and PLCγ2
[8] = target: Btk Lys 430 to Ala mutant (Homo sapiens, UniProt Q06187, K430A); experiment: Probe labeling in 293H cells transiently co-expressing PLCγ2 and Btk K430A; conditions: transient co-expression with PLCγ2
Chain of Btk Lys 430 to Ala mutant (Q06187 whole entry K430A): as the sequence (Q06187 whole entry) above, with K430A counted along it
Experimental: as §3

Chain of purified, active Btk (Q06187 whole entry): as the sequence (Q06187 whole entry) above
Chain of Lck (P06239 whole entry, species assumed): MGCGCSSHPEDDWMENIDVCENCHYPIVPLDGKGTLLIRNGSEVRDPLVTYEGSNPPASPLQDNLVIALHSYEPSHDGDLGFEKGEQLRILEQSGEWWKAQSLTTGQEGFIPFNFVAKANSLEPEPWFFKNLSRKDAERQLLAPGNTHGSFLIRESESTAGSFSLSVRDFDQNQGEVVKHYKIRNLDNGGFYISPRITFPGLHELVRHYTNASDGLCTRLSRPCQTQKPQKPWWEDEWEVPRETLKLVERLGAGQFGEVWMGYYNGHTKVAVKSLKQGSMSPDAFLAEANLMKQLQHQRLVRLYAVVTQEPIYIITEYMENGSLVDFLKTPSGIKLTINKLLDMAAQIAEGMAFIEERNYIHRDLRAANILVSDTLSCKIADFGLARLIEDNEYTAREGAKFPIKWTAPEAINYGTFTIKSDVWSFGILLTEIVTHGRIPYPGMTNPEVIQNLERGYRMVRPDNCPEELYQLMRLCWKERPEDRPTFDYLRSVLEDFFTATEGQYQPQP

Row | SMILES | Effect of pre-incubation on Compound 3 labeling of Btk (purified, active Btk; pre-incubation with 1 μM Compound 2 or 0.5 mM ATPγS) | IC50 (Lck) [nM] | IC50 (Btk [1]; ATP at Km, read-out: IC50 Btk) [nM] | IC50 (Btk [1]; read-out: IC50 against Btk) [nM] | EC50 (Btk [2]) [nM] | IC50 (Abl) [nM] | IC50 (Btk [3]) [nM] | IC50 (EGFR) [nM] | Probe labeling of Btk Y551A mutant [4] | IC50 (c-met) [nM] | IC50 [5] [nM] | Probe labeling of Btk C481A mutant [6] | EC50 (Btk [7]) [nM] | Probe labeling of Btk K430A mutant [8] | Probe concentration at which labeling of Btk reached saturation (purified, active Btk; 1 μg (0.13 μM) purified Btk, 1 hour at 37° C.) [µM]
1 | Nc1ncnc2c1ncn2[C@@H]1O[C@H](COP(=O)(O)OP(=O)(O)OP(O)(O)=S)[C@@H](O)[C@H]1O [ATP-γ-S, reference compound] | substantially reduced | – | – | – | – | – | – | – | – | – | – | – | – | – | –
2 | CC1=CC(C)=[N+]2C1=Cc1ccc(CCC(=O)NCCN3CCN(C/C=C/C(=O)N4CCC[C@@H](n5nc(-c6ccc(Oc7ccccc7)cc6)c6c(N)ncnc65)C4)CC3)n1[B-]2(F)F [Compound 3] | – | 240 | 89 | 90 | ~200 | 300 | 300 | 2900 | also labeled | 100000 | 230 | abrogated labeling | ~200 | no effect on probe labeling | 1
3 | C=CC(=O)N1CCC[C@@H](n2nc(-c3ccc(Oc4ccccc4)cc3)c3c(N)ncnc32)C1 [Compound 2] | – | – | – | – | – | – | – | – | – | 35000 | 10 | – | – | – | –
